# Literature values in patent US6635803B1, “Method to improve drought tolerance in plants” (Regents of the University of California, priority 1999, dated 2003).
# Experiments:
# [1] = tested on: K+in channels in guard cells; settings: cytosolic second messengers
# K+in channel = settings: 10 mM
SMILES,effect on K+in channels [1],block of K+in channel currents (K+in channel),final stomatal apertures (stomata)
"O=P(O)(O)O[C@@H]1[C@H](O)[C@H](O)[C@@H](OP(=O)(O)O)[C@H](OP(=O)(O)O)[C@H]1O [inositol-1,4,5-triphosphate]",inhibit,,
[Ca+2] [Ca^2+],inhibit,,
[Ba+2] [Ba^2+],,90%,does not affect
Nc1nc2c(ncn2[C@@H]2O[C@H](COP(=O)(O)OP(=O)(O)OP(O)(O)=S)[C@@H](O)[C@H]2O)c(=O)[nH]1 [GTPγS],inhibit,,
